Inhibition data for 63 molecules are collected here from PubChem BioAssay AID1288 (Columbia University Molecular Screening Center, 2008).

Structures are written as SMILES. Activity calls are given as the source filed them. How the calls were made is not given here.

A short description of the experiment: inhibitors of TNFa-induced E-selectin expression, confirmation, imaging, retest plus dose response, cell count (AID 1288).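 Further: 0% = stimulated vehicle wells and 100% = unstimulated vehicle wells.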 The settings on record: human endothelial cells, TNFa-induced E-selectin, imaging; at 2 µM; active compounds read high.
By inhibition is commonly meant the change of the read-out against control, counted positive when it falls. As to `CCCC(CCC)C(=O)NNc1cc(=O)c2c(=O)n(C)c(=O)n(C)c2[nH]1`, the inhibition is 5.15% (inactive).

Take `C=C(C)CC(NCCc1ccccc1)c1ccco1` (stereo not drawn): the inhibition was 1.31% (inactive).

Regarding `C=CCn1c(O)c(C(C)=Nc2ccc(NC(C)=O)cc2)c(=O)[nH]c1=O`, the inhibition is 17.3% (inactive).

Turning to `COC(=O)c1c(NC(=O)C2COc3ccccc3O2)sc2c1CCN(Cc1ccccc1)C2` (stereo not drawn), the inhibition was 25.5% (inactive).

For the molecule `CCCCn1c2nc3ccccc3nc2c2c(=O)n(-c3ccccc3)cnc21`, the inhibition is -1.49% (inactive).

As for `COc1ccc(-c2ccc(C(=S)N3CCN(C(C)=O)CC3)o2)cc1`, the inhibition was 3.01% (inactive).

Take `CCS(=O)(=O)N1CCCC(C(=O)NCc2cccc(OC)c2)C1` (stereo not drawn): the inhibition is 12.7% (inactive).

Take `O=C(COC(=O)CCc1ccc(S(=O)(=O)N2CCOCC2)cc1)NC1CCCC1`: the inhibition is 2.85% (inactive).

For the molecule `CCN1C(=O)c2cccc3c(NC(=O)c4cccc(N5C(=O)CCC5=O)c4)ccc1c23`, the inhibition is 0.82% (inactive).

For the molecule `O=C(C1CCN(c2nc3ccc(Br)cc3s2)CC1)N1CCC2(CC1)OCCO2`, the inhibition was 5.07% (inactive).

Regarding `CCc1ccc(N2CC(C(=O)Nc3cccnc3)CC2=O)cc1` (stereo not drawn), the inhibition is 30.5% (inactive).

For the molecule `Cc1cc(=O)n2nc(-c3ccccc3)sc2c1C#N`, the inhibition was 1.2% (inactive).

With `Fc1ccc(CNc2nc(-c3ccccc3)nc3ccccc23)cc1`, the inhibition was 26.5% (inactive).

As to `Cc1cc(C)c(C#N)c(=N)o1`, the inhibition was -5.81% (inactive).

For the molecule `CCOC(=O)N1CCc2c(sc3c2c(=O)n(Cc2ccccc2)c(=O)n3Cc2cccc(C)c2)C1`, the inhibition was 5.64% (inactive).

As to `Cc1cc(C(=O)CN2C(=O)CCC2=O)c(C)n1Cc1ccccc1`, the inhibition was 13.3% (inactive).

`O=c1cc(C(F)F)oc2c1ccc1ccccc12`: the inhibition was -6.72% (inactive).

Take `COc1ccccc1C1/C(=C(/O)c2ccc(C)cc2)C(=O)C(=O)N1CCN1CCOCC1` (stereo not drawn): the inhibition is 6.7% (inactive).

Turning to `COc1cc(C(=O)Nc2ccc3c(c2)C(=O)c2ccccc2C3=O)cc(OC)c1OC`, the inhibition was 12.8% (inactive).

`O=C(Nc1ccccc1C(=O)N/N=C/c1ccco1)c1ccc(F)cc1`: the inhibition was 10.5% (inactive).

Turning to `Nc1cccc(-n2nncc2-c2ccc(Cl)cc2)c1`, the inhibition is 18.2% (inactive).

As for `COc1ccc(CCN(C)c2ccc(S(=O)(=O)N3CCCC3)cn2)cc1OC`, the inhibition was 28.4% (inactive).

Turning to `CC(=O)OC(C(=O)NCc1ccco1)c1cccnc1` (stereo not drawn), the inhibition was 6.49% (inactive).

In the case of `Cc1cc(=O)oc2cc(OCC(=O)OCC(=O)NCc3ccc4c(c3)OCO4)ccc12`, the inhibition was 22.5% (inactive).

Regarding `CCCCc1c(O)nc(SCC(=O)Nc2ccc3c(c2)CCC3)[nH]c1=O`, the inhibition was 14.6% (inactive).

On to `COc1ccc(CCn2c(=S)[nH]c3cc(C(=O)NCc4ccco4)ccc3c2=O)cc1OC`, for which the inhibition is 11% (inactive).

As to `O=C(Cn1ncc2c(=O)oc3ccccc3c21)N1CCc2ccccc2C1`, the inhibition is 9.96% (inactive).

For the molecule `OC(c1ccc2c(c1)OCO2)c1nccc2ccccc12` (stereo not drawn), the inhibition is 4.74% (inactive).

With `CN1c2ccccc2C2(C)CCCC3=Cc4cccc([N+](=O)[O-])c4OC312` (stereo not drawn), the inhibition is 2.99% (inactive).

With `CN1CCN(S(=O)(=O)c2ccc(NC(=O)C3CCCO3)cc2)CC1` (stereo not drawn), the inhibition was 13.2% (inactive).

Consider `COc1ccc2c(c1OC)C(=O)OC2c1c(O)nc(SC)n(-c2ccccc2)c1=O` (stereo not drawn), for which the inhibition was 4.68% (inactive).

Consider `COc1cc(CC(=O)Oc2ccc3c(c2)OCO3)cc(OC)c1OC`, for which the inhibition was 32.5% (inactive).

Consider `CC(=O)c1c(C)[nH]c(C(=O)Nc2ccccc2N2CCOCC2)c1C`, for which the inhibition is 4.19% (inactive).

Turning to `CCCCN1C(=O)C2C3C=CC(C2C1=O)C1C2C(=O)N(CCCC)C(=O)C2C31` (stereo not drawn), the inhibition is 28.4% (inactive).

In the case of `COc1ccc(C)cc1-n1nnnc1SCC(=O)Nc1cccnc1Cl`, the inhibition is -16.5% (inactive).

As for `CN1C(=O)S/C(=C\c2ccccc2OCc2ccc(C(=O)O)cc2)C1=O`, the inhibition was 15.9% (inactive).

As to `CC(C)(C)OC(=O)NNC(=O)NC12CC3CC(CC(C3)C1)C2`, the inhibition is 3.2% (inactive).

With `Cc1cc([N+](=O)[O-])nn1CC(=O)Nc1sc2c(c1C(N)=O)CCCC2`, the inhibition was 18.3% (inactive).

Regarding `CCOc1ccc(N2CC(C(=O)NCCCN3CCOCC3)CC2=O)cc1` (stereo not drawn), the inhibition was 11.2% (inactive).

In the case of `CCOC(=O)c1sc(=N)n(-c2ccc(OC)cc2)c1C`, the inhibition was -1.33% (inactive).

For the molecule `CCOc1ccc(NC(=O)/C=C/c2ccc(OC)cc2)c([N+](=O)[O-])c1`, the inhibition was 13.8% (inactive).

For the molecule `COc1cc(-c2noc(CCC(=O)Nc3cccnc3)n2)cc(OC)c1OC`, the inhibition is 33.6% (inactive).

In the case of `CC(Sc1nnc(-c2cccs2)n1Cc1ccccc1)C(=O)NCc1ccc2c(c1)OCO2` (stereo not drawn), the inhibition was 1.65% (inactive).

For the molecule `CCOC(=O)c1ccccc1NC(=O)c1ccc(N(C)S(C)(=O)=O)cc1`, the inhibition is 15.2% (inactive).

Consider `CCn1c(SCc2nc(CC(=O)Nc3ccccc3OC)no2)nnc1-c1cccs1`, for which the inhibition was 7.75% (inactive).

`Cc1nc2ccccc2c(=O)n1/N=C/c1ccc(O)cc1`: the inhibition is 4.58% (inactive).

Regarding `CC(C)Cn1c(-c2cccs2)nc2ccccc21`, the inhibition is 25.7% (inactive).

As for `c1ccc(-n2c(Sc3cnccn3)nnc2-c2cccs2)cc1`, the inhibition is 8.66% (inactive).

As for `CCOC(=O)Cc1csc(NC(=O)COc2ccc(OC)cc2)n1`, the inhibition was 6.28% (inactive).

For the molecule `CCCCNc1nc(CC)c2c(c1C#N)CCCC2`, the inhibition is 4.98% (inactive).

On to `Clc1ccc(Nc2ccc(-n3ccnc3)nn2)cc1Cl`, for which the inhibition is 11.7% (inactive).

`COc1ccc(-n2c(C)c3c(OC)cccc(=O)c3c2C)cc1`: the inhibition was -2.64% (inactive).

`COc1cc(/C=C2\SC(=S)N(CC(=O)Nc3ccc(O)cc3)C2=O)cc(OC)c1OC`: the inhibition is -1.6% (inactive).

On to `C=CCn1c(COc2ccccc2)nnc1SCC(=O)O`, for which the inhibition was 11.9% (inactive).

On to `CCC(=O)Nc1c(-c2ccc(OC)cc2)c(=O)c2ccccc2n1C`, for which the inhibition was 6.09% (inactive).

Regarding `CCCC(=O)C1=C(O)C(C(=O)OC)C(C)(C)CC1=Nc1ccc(N)cc1` (stereo not drawn), the inhibition is 10.6% (inactive).

As to `O=[N+]([O-])c1ccc(O)c(/C=N/Nc2ccc(Cl)nn2)c1`, the inhibition was 3.18% (inactive).

As for `CN(C)CCNC(=O)/C(=C/c1ccc(-c2ccc(Cl)cc2)o1)NC(=O)c1ccccc1`, the inhibition was 0.09% (inactive).

In the case of `CCN1CCN(Cc2ccc(C)cc2)CC1`, the inhibition was 6.18% (inactive).

Take `CCCOc1ccc(/C(O)=C2/C(=O)C(=O)N(CCCn3ccnc3)C2c2ccco2)cc1` (stereo not drawn): the inhibition was 0.88% (inactive).

Take `C=CCOc1c(Br)cc(CNn2nnnc2N)cc1OC`: the inhibition is 3.16% (inactive).

As to `Cc1cc(=O)[nH]c(SCC(=O)NCc2ccco2)n1`, the inhibition was 5.37% (inactive).

On to `Cn1cc([N+](=O)[O-])c(C(=O)Nc2ccc(Br)cn2)n1`, for which the inhibition was 7.96% (inactive).
